{"source": "patent US20170190671A1", "about": "“BIS(ARYL)CATECHOL DERIVATIVES AS HERBICIDES” (E I DU PONT DE NEMOURS AND COMPANY, priority 2014, published 2017)", "assay_type_in_all_cases": "in vivo", "key": {"[1]": {"system": "galium (catchweed bedstraw, Galium aparine)", "test": "Test C preemergence", "conditions": "Galium, pre-emergence, 336 h, scale 0 to 100, read-out: Plant response rating, Galium", "summary_of_the_method": "(§1)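 Visual ratings (0 none to 100 complete control) were made 13 to 15 days after treatment, relative to controls. Test chemicals, formulated in a non-phytotoxic solvent mixture with surfactant, were applied in the greenhouse preemergence to seeded loam-sand soil or postemergence to plants 2 to 18 cm tall.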"}, "[2]": {"system": "lambsquarters (Chenopodium album)", "test": "Test C preemergence", "conditions": "Chenopodium album, pre-emergence, 336 h, scale 0 to 100, read-out: Plant response rating, Lambsquarters", "summary_of_the_method": "as §1"}, "[3]": {"system": "yellow nutsedge (Cyperus esculentus)", "test": "Test C preemergence", "conditions": "Cyperus, pre-emergence, 336 h, scale 0 to 100, read-out: Plant response rating, Nutsedge, Yellow", "summary_of_the_method": "as §1"}, "[4]": {"system": "giant foxtail (Setaria faberii)", "test": "Test A postemergence", "conditions": "Setaria faberi, post-emergence, 240 h, 0 to 100 scale, read-out: Plant response rating, Foxtail, Giant", "summary_of_the_method": "(§2)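 Injury scores run from 0, no effect, to 100, complete control, judged by eye against untreated plants roughly 10 days after treatment. Chemicals carried a surfactant in a non-phytotoxic solvent and went onto loam–sand soil preemergence or onto one- to two-leaf seedlings postemergence.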"}, "[5]": {"system": "Italian ryegrass (Lolium multiflorum)", "test": "Test A postemergence", "conditions": "Lolium multiflorum, post-emergence, 240 h, 0 to 100 scale, read-out: Plant response rating, Ryegrass, Italian", "summary_of_the_method": "as §2"}, "[6]": {"system": "blackgrass (Alopecurus myosuroides)", "test": "Test A postemergence", "conditions": "Alopecurus myosuroides, post-emergence, 240 h, 0 to 100 scale, read-out: Plant response rating, Blackgrass", "summary_of_the_method": "as §2"}, "[7]": {"system": "barnyardgrass (Echinochloa crus-galli)", "test": "Test A postemergence", "conditions": "Echinochloa crus-galli, post-emergence, 240 h, 0 to 100 scale, read-out: Plant response rating, Barnyardgrass", "summary_of_the_method": "as §2"}, "[8]": {"system": "galium (catchweed bedstraw, Galium aparine)", "test": "Test A postemergence", "conditions": "Galium, post-emergence, 240 h, 0 to 100 scale, read-out: Plant response rating, Galium", "summary_of_the_method": "as §2"}, "[9]": {"system": "pigweed (Amaranthus retroflexus)", "test": "Test A postemergence", "conditions": "Amaranthus retroflexus, post-emergence, 240 h, 0 to 100 scale, read-out: Plant response rating, Pigweed", "summary_of_the_method": "as §2"}, "[10]": {"system": "ragweed (common ragweed, Ambrosia elatior)", "test": "Test A postemergence", "conditions": "Ambrosia artemisiifolia, post-emergence, 240 h, 0 to 100 scale, read-out: Plant response rating, Ragweed", "summary_of_the_method": "as §2"}, "corn (Zea mays)": {"system": "corn (Zea mays)", "test": "Test A postemergence", "conditions": "Zea mays, post-emergence, 240 h, 0 to 100 scale", "summary_of_the_method": "as §2"}, "kochia (Kochia scoparia) [11]": {"system": "kochia (Kochia scoparia)", "test": "Test A postemergence", "conditions": "Bassia scoparia, post-emergence, 240 h, 0 to 100 scale, read-out: Plant response rating, Kochia", "summary_of_the_method": "as §2"}, "[12]": {"system": "wheat (Triticum aestivum)", "test": "Test A postemergence", "conditions": "Triticum aestivum, post-emergence, 240 h, 0 to 100 scale, read-out: Plant response rating, Wheat", "summary_of_the_method": "as §2"}, "rice (Oryza sativa)": {"system": "rice (Oryza sativa)", "test": "Test B flooded paddy", "conditions": "Oryza sativa, 336 h; 250 g ai/ha, Flood, 13 to 15 days, scale 0 (no effect) to 100 (complete control); read-out: Plant response rating, Rice", "summary_of_the_method": "(§3)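 Compound was added to standing water 3 cm above soil, flood maintained, and plants held in a greenhouse before visual scoring against controls at 13 to 15 days.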"}, "[13]": {"system": "barnyardgrass (Echinochloa crus-galli)", "test": "Test B flooded paddy", "conditions": "Echinochloa crus-galli, 336 h; 250 g ai/ha, Flood, 13 to 15 days, scale 0 (no effect) to 100 (complete control); read-out: Plant response rating, Barnyardgrass", "summary_of_the_method": "as §3"}, "[14]": {"system": "ducksalad (Heteranthera limosa)", "test": "Test B flooded paddy", "conditions": "Heteranthera limosa, 336 h; 250 g ai/ha, Flood, 13 to 15 days, scale 0 (no effect) to 100 (complete control); read-out: Plant response rating, Ducksalad", "summary_of_the_method": "as §3"}, "[15]": {"system": "sedge, umbrella (small-flower umbrella sedge, Cyperus difformis)", "test": "Test B flooded paddy", "conditions": "Cyperus difformis, 336 h; 250 g ai/ha, Flood, 13 to 15 days, scale 0 (no effect) to 100 (complete control); read-out: Plant response rating, Sedge, Umbrella", "summary_of_the_method": "as §3"}, "[16]": {"system": "giant foxtail (Setaria faberii)", "test": "Test A preemergence", "conditions": "Setaria faberi, pre-emergence, 240 h, 0 to 100 scale (0 no effect, 100 complete control), read-out: Foxtail, Giant plant response rating", "summary_of_the_method": "as §2"}, "[17]": {"system": "Italian ryegrass (Lolium multiflorum)", "test": "Test A preemergence", "conditions": "Lolium multiflorum, pre-emergence, 240 h, 0 to 100 scale (0 no effect, 100 complete control), read-out: Ryegrass, Italian plant response rating", "summary_of_the_method": "as §2"}, "[18]": {"system": "barnyardgrass (Echinochloa crus-galli)", "test": "Test A preemergence", "conditions": "Echinochloa crus-galli, pre-emergence, 240 h", "summary_of_the_method": "as §2"}, "[19]": {"system": "pigweed (Amaranthus retroflexus)", "test": "Test A preemergence", "conditions": "Amaranthus retroflexus, pre-emergence, 240 h, 0 to 100 scale (0 no effect, 100 complete control), read-out: Pigweed plant response rating", "summary_of_the_method": "as §2"}, "[20]": {"system": "ragweed (common ragweed, Ambrosia elatior)", "test": "Test A preemergence", "conditions": "Ambrosia artemisiifolia, pre-emergence, 240 h, 0 to 100 scale (0 no effect, 100 complete control), read-out: Ragweed plant response rating", "summary_of_the_method": "as §2"}, "kochia (Kochia scoparia) [21]": {"system": "kochia (Kochia scoparia)", "test": "Test A preemergence", "conditions": "Bassia scoparia, pre-emergence, 240 h, 0 to 100 scale (0 no effect, 100 complete control), read-out: Kochia plant response rating", "summary_of_the_method": "as §2"}}}
{"compound": "N#Cc1cccc(Oc2ncc(Cl)cn2)c1Oc1cnc(Cl)cn1", "note": "[Compound 32, 2-[(5-chloro-2-pyrazinyl)oxy]-3-[(5-chloro-2-pyrimidinyl)oxy]benzonitrile]", "values": [{"measurement": "pest or weed control at 31 g/ha", "setting": "[1]; 31 g ai/ha, preemergence", "result": 95, "unit": "%"}, {"measurement": "pest or weed control at 62 g/ha", "setting": "[1]; 62 g ai/ha, preemergence", "result": 95, "unit": "%"}, {"measurement": "pest or weed control at 125 g/ha", "setting": "[1]; 125 g ai/ha, preemergence", "result": 95, "unit": "%"}, {"measurement": "pest or weed control at 16 g/ha", "setting": "[1]; Preemergence, 16 g ai/ha", "result": 10, "unit": "%"}, {"measurement": "pest or weed control at 31 g/ha", "setting": "[2]; 31 g ai/ha, preemergence", "result": 90, "unit": "%"}, {"measurement": "pest or weed control at 62 g/ha", "setting": "[2]; 62 g ai/ha, preemergence", "result": 90, "unit": "%"}, {"measurement": "pest or weed control at 125 g/ha", "setting": "[2]; 125 g ai/ha, preemergence", "result": 100, "unit": "%"}, {"measurement": "pest or weed control at 16 g/ha", "setting": "[2]; Preemergence, 16 g ai/ha", "result": 60, "unit": "%"}, {"measurement": "pest or weed control at 31 g/ha", "setting": "[3]; 31 g ai/ha, preemergence", "result": 35, "unit": "%"}, {"measurement": "pest or weed control at 62 g/ha", "setting": "[3]; 62 g ai/ha, preemergence", "result": 60, "unit": "%"}, {"measurement": "pest or weed control at 125 g/ha", "setting": "[3]; 125 g ai/ha, preemergence", "result": 75, "unit": "%"}, {"measurement": "pest or weed control at 16 g/ha", "setting": "[3]; Preemergence, 16 g ai/ha", "result": 5, "unit": "%"}, {"measurement": "pest or weed control at 31 g/ha", "setting": "[4]; 31 g ai/ha", "result": 50, "unit": "%"}, {"measurement": "pest or weed control at 125 g/ha", "setting": "[4]; 125 g ai/ha", "result": 90, "unit": "%"}, {"measurement": "pest or weed control at 31 g/ha", "setting": "[5]; 31 g ai/ha", "result": 10, "unit": "%"}, {"measurement": "pest or weed control at 125 g/ha", "setting": "[5]; 125 g ai/ha", "result": 50, "unit": "%"}, {"measurement": "pest or weed control at 31 g/ha", "setting": "[6]; 31 g ai/ha", "result": 60, "unit": "%"}, {"measurement": "pest or weed control at 125 g/ha", "setting": "[6]; 125 g ai/ha", "result": 70, "unit": "%"}, {"measurement": "pest or weed control at 31 g/ha", "setting": "[7]; 31 g ai/ha", "result": 40, "unit": "%"}, {"measurement": "pest or weed control at 125 g/ha", "setting": "[7]; 125 g ai/ha", "result": 100, "unit": "%"}, {"measurement": "pest or weed control at 31 g/ha", "setting": "[8]; 31 g ai/ha", "result": 90, "unit": "%"}, {"measurement": "pest or weed control at 125 g/ha", "setting": "[8]; 125 g ai/ha", "result": 90, "unit": "%"}, {"measurement": "pest or weed control at 31 g/ha", "setting": "[9]; 31 g ai/ha", "result": 100, "unit": "%"}, {"measurement": "pest or weed control at 125 g/ha", "setting": "[9]; 125 g ai/ha", "result": 100, "unit": "%"}, {"measurement": "pest or weed control at 31 g/ha", "setting": "[10]; 31 g ai/ha", "result": 10, "unit": "%"}, {"measurement": "pest or weed control at 125 g/ha", "setting": "[10]; 125 g ai/ha", "result": 30, "unit": "%"}, {"measurement": "Corn plant response rating (crop injury, 0 = no effect, 100 = complete kill) at 31 g/ha", "setting": "corn (Zea mays); 31 g ai/ha", "result": 30, "unit": "%"}, {"measurement": "Corn plant response rating (crop injury, 0 = no effect, 100 = complete kill) at 125 g/ha", "setting": "corn (Zea mays); 125 g ai/ha", "result": 50, "unit": "%"}, {"measurement": "pest or weed control at 31 g/ha", "setting": "kochia (Kochia scoparia) [11]; 31 g ai/ha", "result": 90, "unit": "%"}, {"measurement": "pest or weed control at 125 g/ha", "setting": "kochia (Kochia scoparia) [11]; 125 g ai/ha", "result": 90, "unit": "%"}, {"measurement": "plant injury at 31 g/ha", "setting": "[12]; 31 g ai/ha", "result": 0, "unit": "%"}, {"measurement": "plant injury at 125 g/ha", "setting": "[12]; 125 g ai/ha", "result": 30, "unit": "%"}, {"measurement": "plant injury at 250 g/ha", "setting": "rice (Oryza sativa)", "result": 40, "unit": "%"}, {"measurement": "pest or weed control at 250 g/ha", "setting": "[13]", "result": 70, "unit": "%"}, {"measurement": "pest or weed control at 250 g/ha", "setting": "[14]", "result": 75, "unit": "%"}, {"measurement": "pest or weed control at 250 g/ha", "setting": "[15]", "result": 90, "unit": "%"}, {"measurement": "pest or weed control at 31 g/ha", "setting": "[16]; 31 g ai/ha", "result": 100, "unit": "%"}, {"measurement": "pest or weed control at 125 g/ha", "setting": "[16]; 125 g ai/ha", "result": 100, "unit": "%"}, {"measurement": "pest or weed control at 31 g/ha", "setting": "[17]; 31 g ai/ha", "result": 10, "unit": "%"}, {"measurement": "pest or weed control at 125 g/ha", "setting": "[17]; 125 g ai/ha", "result": 60, "unit": "%"}, {"measurement": "pest or weed control at 31 g/ha", "setting": "[18]; 31 g ai/ha, 0 to 100 scale (0 no effect, 100 complete control), read-out: Barnyardgrass plant response rating", "result": 30, "unit": "%"}, {"measurement": "pest or weed control at 125 g/ha", "setting": "[18]; 125 g ai/ha, 0 to 100 scale, read-out: Plant response rating, Barnyardgrass", "result": 90, "unit": "%"}, {"measurement": "pest or weed control at 31 g/ha", "setting": "[19]; 31 g ai/ha", "result": 100, "unit": "%"}, {"measurement": "pest or weed control at 125 g/ha", "setting": "[19]; 125 g ai/ha", "result": 100, "unit": "%"}, {"measurement": "pest or weed control at 31 g/ha", "setting": "[20]; 31 g ai/ha", "result": 0, "unit": "%"}, {"measurement": "pest or weed control at 125 g/ha", "setting": "[20]; 125 g ai/ha", "result": 30, "unit": "%"}, {"measurement": "pest or weed control at 31 g/ha", "setting": "kochia (Kochia scoparia) [21]; 31 g ai/ha", "result": 100, "unit": "%"}, {"measurement": "pest or weed control at 125 g/ha", "setting": "kochia (Kochia scoparia) [21]; 125 g ai/ha", "result": 100, "unit": "%"}]}
